Measured values published in patent publication US20250186436A1 (4E Therapeutics, Inc., priority 2021, published 2025).
Several values for one entry are separate records, joined by “and”; a condition that tells them apart may be missing. Identical values can stand only once. Like-named read-outs stand apart in the source and are kept apart here.

Legend:
[1] = PK study in male Sprague-Dawley rats dosed once per day for five days, PO 1 mg/kg, 0.5% HPMC (Example 6); format: in vivo; details: male, Sprague-Dawley, rat, in vivo, po, 1 mg/kg, male Sprague-Dawley rats, 0.5% HPMC suspension; for concentration at 24 hr: read-out: Clast
Experimental: Example 6: PK study of 4ET-03-053 in male Sprague-Dawley rats dosed once per day for five days (P0; 1 mg/kg; 0.500HPMC aqueous suspension)
Table 18 provides plasma and brain concentrations of 4ET-03-0053 at 24 hr after the last dose of five daily P0 doses.

[2] = PK study in male Sprague-Dawley rats, IV 0.5 mg/kg and PO 1 mg/kg in 10% DMA/PG (Example 5); format: in vivo; details: for MRT inf: MRTinf
Experimental: Example 5: PK study of 4ET-03-053 in male Sprague-Dawley rats with IV (0.5 mg kg; 10% DMI 15% EtOH 35% PG 40% NS) and PO (1 mg kg; 10% DMA PG) dosing
In male Sprague-Dawley rats, following IV administration with 0.5 mg/kg 4ET-03-053, plasma concentrations declined in a multiphasic manner with an initial concentration (Co) of 1.24 ug/mL and a last measurable concentration (Clast) of 33.2 ng/mL at 24 h post dose.
Table 15 provides plasma and brain concentrations at 2 hr after a single P0 dose of 1 mg/kg.

[3] = Plasma and brain concentrations, brain to plasma ratio in male CD1 mice (Example 3); format: in vivo; details: 2 h post dosing; for concentration at 2 h: male, CD1, mouse
[4] = tested on: eIF4E phosphorylation in hDRGs; assay: p-eIF4E immunofluorescence in cultured human dorsal root ganglion cells (hDRGs); format: cell-based; details: immunofluorescence
Experimental: For all human DRG experiments, DRGs were recovered from organ donors at the Southwest Transplant Alliance under an IRB approved protocol at University of Texas at Dallas. DRGs were recovered within 3 hrs of cross clamp. DRGs were recovered and taken back to the University of Texas lab where they were cultured using the protocol described previously. Cultures were grown on glass coverslips for microscopy. Coverslips were coated with poly-D-lysine and laminin to improve neuronal adherence to the coverslips. Cultures of human DRG neurons were grown for 4-7 days prior to treatment with OSM. OSM treatment was done in culture media for a period of 30 min. Cells were stained with antibodies using the same protocol as described above for HEK293 cells. Imaging was done on an Olympus FV1200 microscope and image analysis was done with CellSens software. Statistical analysis was done with Graphpad Prism V8.
Human DRG recovery and other experimental protocols were the same as described herein.

[5] = single (first) PO 1 mg/kg dose, individual animals
[6] = single (first) PO 1 mg/kg dose, mean (n = 3)
[7] = male Sprague-Dawley rats, IV 0.5 mg/kg, 10% DMI:15% EtOH:35% PG:40% NS, individual animals, 0.5 mg/kg
[8] = male, Sprague-Dawley, rat, in vivo, iv, 0.5 mg/kg
[9] = male, Sprague-Dawley, rat, in vivo, po, 1 mg/kg

Work on `Cc1cc(Nc2cc(N)ncn2)c(=O)n2c1C(=O)NC21CCC2(CC2)CC1` [4ET-03-053, 6″-((6-Aminopyrimidin-4-yl)amino)-8″-methyl-2″H-dispiro[cyclopropane-1,1′-cyclohexane-4′,3″-imidazo[1,5-a]pyridine]-1″,5″-dione] yielded a Tmax [1, 5] of 2 h, an AUC(0-inf) ([1]; single (first) PO 1 mg/kg dose, individual animals, read-out: AUCinf) of 37200 ng·h/mL and a concentration at 24 hr [1, 5] of 179 ng/mL. For the same molecule, the Cmax ([1]; single (first) PO 1 mg/kg dose, individual animals, read-out: Cmax) was 2400 ng/mL, the half-life ([1]; single (first) PO 1 mg/kg dose, individual animals, read-out: t1/2 (converted)) was 5.51 h and the AUC(0-t) [1, 6] was 31800 ng·h/mL. It also gave an MRT inf [1, 6] of 8.13 h, a Tmax [1, 6] of 2 h and an AUC(0-inf) ([1]; single (first) PO 1 mg/kg dose, mean (n = 3), read-out: AUCinf) of 33600 ng·h/mL. It also gave a concentration at 24 hr [1, 6] of 213 ng/mL, a Cmax ([1]; single (first) PO 1 mg/kg dose, mean (n = 3), read-out: Cmax) of 2580 ng/mL and a half-life ([1]; single (first) PO 1 mg/kg dose, mean (n = 3), read-out: t1/2 (converted)) of 5.73 h. For the same molecule, the bioavailability ([1]; single PO 1 mg/kg) was 65.4%, the concentration at 24 h ([1]; single PO 1 mg/kg, at 24 hr, read-out: last measurable concentration) was 213 ng/mL and the Cmax ([1]; single PO 1 mg/kg, read-out: peak plasma concentration (Cmax)) was 2580 ng/mL. The half-life ([1]; single PO 1 mg/kg, read-out: terminal half-life (t1/2) (converted)) was 5.73 h, the AUC(0-inf) ([1]; single PO 1 mg/kg, read-out: total systemic exposure (AUCinf)) was 33600 ng·h/mL and the AUClast [2, 7] was 4654 ng·h/mL and 3767 ng·h/mL. For the same molecule, the Clast [2, 7] was 36.7 ng/mL and 29.7 ng/mL, the C0 [2, 8] was 1240 ng/mL and the AUC(0-inf) ([2]; male, Sprague-Dawley, rat, in vivo, iv, 0.5 mg/kg, AUCinf) was 4080 ng·h/mL. It also gave a clearance ([2]; male, Sprague-Dawley, rat, in vivo, iv, 0.5 mg/kg, CLp) of 2.04 mL/min/kg, an MRT inf [2, 8] of 7.69 h and a Vd ([2]; male, Sprague-Dawley, rat, in vivo, iv, 0.5 mg/kg, Vss) of 0.942 L/kg. The concentration at 24 h ([2]; male, Sprague-Dawley, rat, in vivo, iv, 0.5 mg/kg, male Sprague-Dawley rats, 0.5 mg/kg IV, at 24 h, read-out: last measurable concentration (Clast)) was 33.2 ng/mL, the AUC(0-t) ([2]; male, Sprague-Dawley, rat, in vivo, iv, 0.5 mg/kg, male Sprague-Dawley rats, IV 0.5 mg/kg, 10% DMI:15% EtOH:35% PG:40% NS, individual animals, read-out: AUClast) was 4030 ng·h/mL and the concentration at 24 h ([2]; male, Sprague-Dawley, rat, in vivo, iv, 0.5 mg/kg, male Sprague-Dawley rats, IV 0.5 mg/kg, 10% DMI:15% EtOH:35% PG:40% NS, individual animals, read-out: Clast) was 33.1 ng/mL. It also gave an AUC(0-t) ([2]; male, Sprague-Dawley, rat, in vivo, iv, 0.5 mg/kg, male Sprague-Dawley rats, IV 0.5 mg/kg, 10% DMI:15% EtOH:35% PG:40% NS, mean (n = 3), read-out: AUClast) of 4150 ng·h/mL, a concentration at 24 h ([2]; male, Sprague-Dawley, rat, in vivo, iv, 0.5 mg/kg, male Sprague-Dawley rats, IV 0.5 mg/kg, 10% DMI:15% EtOH:35% PG:40% NS, mean (n = 3), read-out: Clast) of 33.2 ng/mL and a Vd ([2]; male, Sprague-Dawley, rat, in vivo, iv, 0.5 mg/kg, steady-state volume of distribution (Vss)) of 0.87 L/kg. The clearance ([2]; male, Sprague-Dawley, rat, in vivo, iv, 0.5 mg/kg, systemic clearance (CLp)) was 1.87 mL/min/kg, the half-life ([2]; male, Sprague-Dawley, rat, in vivo, iv, 0.5 mg/kg, t1/2) was 7.26 h and the half-life ([2]; male, Sprague-Dawley, rat, in vivo, iv, 0.5 mg/kg, terminal half-life (t1/2)) was 7.33 h. It also gave an AUC(0-inf) ([2]; male, Sprague-Dawley, rat, in vivo, iv, 0.5 mg/kg, total systemic exposure (AUCinf)) of 4500 ng·h/mL, a Tmax [2, 9] of 0.5 h and a bioavailability [2, 9] of 76.7%. For the same molecule, the “time to peak plasma concentration” value [2, 9] was ≤ 30 min, the AUC(0-inf) ([2]; male, Sprague-Dawley, rat, in vivo, po, 1 mg/kg, AUCinf) was 7020 ng·h/mL and the AUC(0-t) ([2]; male, Sprague-Dawley, rat, in vivo, po, 1 mg/kg, AUClast) was 6110 ng·h/mL. It also gave a concentration at 24 hr ([2]; male, Sprague-Dawley, rat, in vivo, po, 1 mg/kg, Clast) of 74.6 ng/mL, a Cmax ([2]; male, Sprague-Dawley, rat, in vivo, po, 1 mg/kg, Cmax) of 683 ng/mL and an MRT inf [2, 9] of 10.6 h. For the same molecule, the concentration at 24 hr ([2]; male, Sprague-Dawley, rat, in vivo, po, 1 mg/kg, last measurable concentration) was 74.6 ng/mL, the Cmax ([2]; male, Sprague-Dawley, rat, in vivo, po, 1 mg/kg, peak plasma concentration (Cmax)) was 683 ng/mL and the half-life ([2]; male, Sprague-Dawley, rat, in vivo, po, 1 mg/kg, t1/2) was 9.23 h. For the same molecule, the half-life ([2]; male, Sprague-Dawley, rat, in vivo, po, 1 mg/kg, terminal half-life (t1/2)) was 9.23 h, the AUC(0-inf) ([2]; male, Sprague-Dawley, rat, in vivo, po, 1 mg/kg, total systemic exposure (AUCinf)) was 6900 ng·h/mL and the “Brain Tissue Homogenate Conc.” value ([3]; individual animals (n = 3)) was 5.89 ng/mL and 6.41 ng/mL. The “Plasma Conc.” value ([3]; individual animals (n = 3)) was 584 ng/mL and 661 ng/mL, the concentration at 2 h ([3]; brain tissue homogenate, individual animals (n = 3), read-out: Brain Tissue Homogenate Conc.) was 4.61 ng/mL and the concentration at 2 h ([3]; brain tissue homogenate, mean, read-out: Brain Tissue Homogenate Conc., Mean) was 5.64 ng/mL. It also gave a concentration at 2 h ([3]; brain tissue, read-out: Brain Mean Tissue) of 22.5 ng/g, a concentration at 2 h ([3]; plasma, individual animals (n = 3), read-out: Plasma Conc.) of 488 ng/mL and a concentration at 2 h ([3]; plasma, mean, read-out: Plasma Conc., Mean) of 578 ng/mL. For the same molecule, the Kp at 2 h ([3]; mouse, brain/plasma, read-out: Mean Tissue/Plasma Conc. Ratio (brain to plasma ratio)) was 0.039, the “phosphorylation of eIF4E in hDRGs” value ([4]; 30 min treatment) was “reduces phosphorylation of eIF4E” and the “phosphorylation of eIF4E in hDRGs in the presence of OSM” value ([4]; in presence of OSM) was “reduces phosphorylation of eIF4E”.
